Drawing on US8563542B2 (Cyclacel Limited, priority 2007, dated 2013), this text covers IC50 for 20 compounds.

One experiment has as its target PLK1 (Homo sapiens, UniProt P53350). The experiment can be described thus: PLK1 protein kinase assay (CDC25C phosphorylation, [γ-32P]-ATP). It counts as biochemical. The note with it: Table 2, PLK1 IC50; class symbols; read-out: PLK1 IC50.
Another experiment addresses T1, AA (Homo sapiens, UniProt O14965).
T1 sequence (O14965 1-403): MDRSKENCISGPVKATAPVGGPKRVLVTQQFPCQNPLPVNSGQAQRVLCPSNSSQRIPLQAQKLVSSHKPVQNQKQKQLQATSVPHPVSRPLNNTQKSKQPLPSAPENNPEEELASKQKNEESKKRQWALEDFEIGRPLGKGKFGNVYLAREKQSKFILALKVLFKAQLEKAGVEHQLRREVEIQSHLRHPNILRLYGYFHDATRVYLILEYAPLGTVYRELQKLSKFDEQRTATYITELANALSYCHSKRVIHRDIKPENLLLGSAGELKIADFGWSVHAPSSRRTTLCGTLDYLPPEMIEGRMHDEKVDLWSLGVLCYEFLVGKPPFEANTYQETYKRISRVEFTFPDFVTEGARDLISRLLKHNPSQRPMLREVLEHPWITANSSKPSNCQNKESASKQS
The experiment can be described thus: AA IC50 (Table 1; no method given). The note with it: Table 2, AurA IC50; class symbols; read-out: AurA IC50. The format is biochemical.

Chain of PLK1 (P53350 whole entry): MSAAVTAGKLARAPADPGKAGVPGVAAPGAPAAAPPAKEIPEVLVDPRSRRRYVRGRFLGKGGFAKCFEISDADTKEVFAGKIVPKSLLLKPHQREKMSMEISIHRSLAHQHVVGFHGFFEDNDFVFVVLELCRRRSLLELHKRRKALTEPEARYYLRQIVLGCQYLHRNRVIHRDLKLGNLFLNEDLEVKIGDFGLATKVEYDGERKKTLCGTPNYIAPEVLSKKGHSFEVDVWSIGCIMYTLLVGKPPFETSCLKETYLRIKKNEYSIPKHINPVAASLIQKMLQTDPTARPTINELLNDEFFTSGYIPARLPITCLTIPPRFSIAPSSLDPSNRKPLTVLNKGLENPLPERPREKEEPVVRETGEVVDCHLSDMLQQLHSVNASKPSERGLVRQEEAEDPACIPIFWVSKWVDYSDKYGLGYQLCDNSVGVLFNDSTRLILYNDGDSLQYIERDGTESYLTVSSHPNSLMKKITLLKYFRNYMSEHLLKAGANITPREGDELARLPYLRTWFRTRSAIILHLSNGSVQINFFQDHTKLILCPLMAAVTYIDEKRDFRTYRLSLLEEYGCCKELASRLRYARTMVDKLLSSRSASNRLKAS

For `CN1C(=O)CCN(C2CCCC2)c2nc(Nc3ccc(N4CCOCC4)cc3)ncc21` [compound 51, 9-Cyclopentyl-5-methyl-2-(4-morpholin-4-yl-phenylamino)-5,7,8,9-tetrahydro-pyrimido[4,5-b][1,4]diazepin-6-one], the IC50 on PLK1 and at AA was under 1000 nM in each case.
As for `CN1C(=O)CCN(C2CCCC2)c2nc(Nc3cccc(S(N)(=O)=O)c3)ncc21` [compound 53, 3-(9-Cyclopentyl-5-methyl-6-oxo-6,7,8,9-tetrahydro-5H-pyrimido[4,5-b][1,4]diazepin-2-ylamino)-benzenesulfonamide], the IC50 at PLK1 and on AA was under 1000 nM each time.
As for `CN1C(=O)CCN(C2CCCC2)c2nc(Nc3ccc(C(=O)O)cc3)ncc21` [compound 54, 4-(9-Cyclopentyl-5-methyl-6-oxo-6,7,8,9-tetrahydro-5H-pyrimido[4,5-b][1,4]diazepin-2-ylamino)-benzoic acid], the IC50 on PLK1 and at AA was under 100 nM in each case.
Consider `CN1C(=O)CCN(C2CCCC2)c2nc(Nc3ccc(S(C)(=O)=O)cc3)ncc21` [compound 55, 9-Cyclopentyl-2-(4-methanesulfonyl-phenylamino)-5-methyl-5,7,8,9-tetrahydro-pyrimido[4,5-b][1,4]diazepin-6-one], for which the IC50 is under 10000 nM at PLK1 and under 100 nM at AA.
As to `CN1C(=O)CCN(C2CCCC2)c2nc(Nc3cccc(C(=O)O)c3)ncc21` [compound 56, 3-(9-Cyclopentyl-5-methyl-6-oxo-6,7,8,9-tetrahydro-5H-pyrimido[4,5-b][1,4]diazepin-2-ylamino)-benzoic acid], the IC50 at PLK1 and at AA was under 1000 nM each time.
As to `CN1CCC(NC(=O)c2cccc(Nc3ncc4c(n3)N(C3CCCC3)CCC(=O)N4C)c2)CC1` [compound 57, 3-(9-Cyclopentyl-5-methyl-6-oxo-6,7,8,9-tetrahydro-5H-pyrimido[4,5-b][1,4]diazepin-2-ylamino)-N-(1-methyl-piperidin-4-yl)-benzamide], the IC50 was under 10000 nM at PLK1 and under 1000 nM on AA.
In the same order, the values of `COc1cc(Nc2ncc3c(n2)N(C2CCCC2)CCC(=O)N3C)ccc1C(=O)NC1CCN(C)CC1` [compound 58, 4-(9-Cyclopentyl-5-methyl-6-oxo-6,7,8,9-tetrahydro-5H-pyrimido[4,5-b][1,4]diazepin-2-ylamino)-2-methoxy-N-(1-methyl-piperidin-4-yl)-benzamide] are under 1000 nM and under 100 nM.
With `CN1CCC(NS(=O)(=O)c2ccc(Nc3ncc4c(n3)N(C3CCCC3)CCC(=O)N4C)cc2)CC1` [compound 61, 4-(9-Cyclopentyl-5-methyl-6-oxo-6,7,8,9-tetrahydro-5H-pyrimido[4,5-b][1,4]diazepin-2-ylamino)-N-(1-methyl-piperidin-4-yl)-benzenesulfonamide], the IC50 at PLK1 is under 10000 nM; on AA it was under 1000 nM.
Consider `CN1C(=O)CCN(C2CCCC2)c2nc(Nc3ccc(S(N)(=O)=O)cc3)ncc21` [compound 63, 4-(9-Cyclopentyl-5-methyl-6-oxo-6,7,8,9-tetrahydro-5H-pyrimido[4,5-b][1,4]diazepin-2-ylamino)-benzenesulfonamide], for which the IC50 was under 10000 nM on PLK1 and under 100 nM on AA.
In the same order, the values of `CN1C(=O)CCN(C2CCCC2)c2nc(Nc3ccccc3)ncc21` [compound 70, 9-Cyclopentyl-5-methyl-2-phenylamino-5,7,8,9-tetrahydro-pyrimido[4,5-b][1,4]diazepin-6-one] are under 10000 nM and under 1000 nM.
For `CCC1CN(C2CCCC2)c2nc(Nc3ccc4c(c3)CS(=O)(=O)C4)ncc2N(C)C1=O` (stereo not shown) [compound 74, 9-Cyclopentyl-2-(2,2-dioxo-2,3-dihydro-1H-2lambda*6*-benzo[c]thiophen-5-ylamino)-7-ethyl-5-methyl-5,7,8,9-tetrahydro-pyrimido[4,5-b][1,4]diazepin-6-one], in that order: under 1000 nM and under 100 nM.
Regarding `CC1CN(C2CCCC2)c2nc(Nc3ccc4c(c3)CS(=O)(=O)C4)ncc2N(C)C1=O` (stereo not shown) [compound 76, 9-Cyclopentyl-2-(2,2-dioxo-2,3-dihydro-1H-2lambda*6*-benzo[c]thiophen-5-ylamino)-5,7-dimethyl-5,7,8,9-tetrahydro-pyrimido[4,5-b][1,4]diazepin-6-one], the IC50 on PLK1 is under 1000 nM; on AA, under 100 nM.
In the same order, the values of `CN1C(=O)C(C)(C)CN(C2CCCC2)c2nc(Nc3ccc4c(c3)CS(=O)(=O)C4)ncc21` [compound 77, 9-Cyclopentyl-2-(2,2-dioxo-2,3-dihydro-1H-2lambda*6*-benzo[c]thiophen-5-ylamino)-5,7,7-trimethyl-5,7,8,9-tetrahydro-pyrimido[4,5-b][1,4]diazepin-6-one] are under 1000 nM and under 1000 nM.
Consider `CN1C(=O)C2(CC2)CN(C2CCCC2)c2nc(Nc3ccc4c(c3)CS(=O)(=O)C4)ncc21` [compound 78, (9-Cyclopentyl-2-(2,2-dioxo-2,3-dihydro-1H-2lambda*6*-benzo[c]thiophen-5-ylamino)5-methyl-6-oxo-6,7,8,9-tetrahydro-5H-spiro[pyrimido[4,5-b][1,4]diazepin-3,1′-cyclopropane]], for which the figures for the IC50 on PLK1 and at AA were under 1000 nM and under 100 nM, respectively.
For `CN1C(=O)CCN(C2CCCC2)c2nc(Nc3ccc(C(N)=O)cc3)ncc21` [compound 83, 4-(9-Cyclopentyl-5-methyl-6-oxo-6,7,8,9-tetrahydro-5H-pyrimido[4,5-b][1,4]diazepin-2-ylamino)-benzamide], in that order: under 1000 nM and under 100 nM.
For `CN1C(=O)C2(CC2)CN(C2CCCC2)c2nc(Nc3ccc(C(=O)O)cc3)ncc21` [compound 84, 4-(9-Cyclopentyl-5-methyl-6-oxo-6,7,8,9-tetrahydro-5H-spiro[pyrimido[4,5-b][1,4]diazepin-3,1′-cyclopropane]-2-ylamino)-benzoic acid], in that order: under 1000 nM and under 10000 nM.
In the same order, the values of `CN(C)C(=O)c1ccc(Nc2ncc3c(n2)N(C2CCCC2)CCC(=O)N3C)cc1` [compound 85, 4-(9-Cyclopentyl-5-methyl-6-oxo-6,7,8,9-tetrahydro-5H-pyrimido[4,5-b][1,4]diazepin-2-ylamino)-N,N-dimethyl-benzamide] are under 10000 nM and under 100 nM.
`CC(=O)NCc1ccc(Nc2ncc3c(n2)N(C2CCCC2)CCC(=O)N3C)cc1` [compound 86, N-[4-(9-Cyclopentyl-5-methyl-6-oxo-6,7,8,9-tetrahydro-5H-pyrimido[4,5-b][1,4]diazepin-2-ylamino)-benzyl]-acetamide]: the IC50 is under 10000 nM at PLK1 and under 100 nM at AA.
For `CNC(=O)c1ccc(Nc2ncc3c(n2)N(C2CCCC2)CCC(=O)N3C)c(OC)c1` [compound 87, 4-(9-Cyclopentyl-5-methyl-6-oxo-6,7,8,9-tetrahydro-5H-pyrimido[4,5-b][1,4]diazepin-2-ylamino)-3-methoxy-N-methyl-benzamide], in that order: under 100 nM and under 10000 nM.
For `COc1cc(C(=O)N(C)C)ccc1Nc1ncc2c(n1)N(C1CCCC1)CCC(=O)N2C` [compound 88, 4-(9-Cyclopentyl-5-methyl-6-oxo-6,7,8,9-tetrahydro-5H-pyrimido[4,5-b][1,4]diazepin-2-ylamino)-3-methoxy-N,N-dimethyl-benzamide], in that order: under 1000 nM and under 10000 nM.
